These results are taken from PubChem BioAssay (NCI).

Test systems include HCT-116 colon; LOX IMVI melanoma; OVCAR-3 ovarian; MOLT-4 leukemia; OVCAR-8 ovarian; CCRF-CEM leukemia; MCF7 breast; SK-OV-3 ovarian; HL-60(TB) leukemia; MDA-MB-435.
Holding throughout (experiment): inhibition of tumour cell growth, NCI panel, 48 h

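Briefly, cells in 96-well plates were exposed to five compound concentrations for 48 h, and endpoints were estimated by linear interpolation. The concentration for 50% growth inhibition is given as GI50. TGI: total growth inhibition.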

In the case of `O=C(Nc1cc(Cl)ccc1O)c1cccc(Nc2ccnc(C(F)(F)F)c2)c1`, the GI50 in the test with HCT-116 colon is 2.22 µM; with LOX IMVI melanoma it was 2.65 µM; in the test on OVCAR-3 ovarian, 2.73 µM; in the test on MOLT-4 leukemia, 1.54 µM; in the test on OVCAR-8 ovarian, 3.77 µM; in the test on CCRF-CEM leukemia it was 1.93 µM. Besides, the GI50 in the test with MCF7 breast is 2 µM; with SK-OV-3 ovarian, 3.3 µM; in the test on HL-60(TB) leukemia, 0.935 µM; with MDA-MB-435 it was 2.83 µM. Further, the TGI with HCT-116 colon is 17.6 µM; in the test on LOX IMVI melanoma it was 24.4 µM; in the test with OVCAR-3 ovarian it was 10.4 µM; in the test on MOLT-4 leukemia it was 4.73 µM; in the test with OVCAR-8 ovarian it was 32.1 µM; in the test on CCRF-CEM leukemia, 6.8 µM. Further, the TGI turned out to be 17.9 µM in the test with MCF7 breast, 25.3 µM with SK-OV-3 ovarian, 4.03 µM in the test with HL-60(TB) leukemia and 12.2 µM with MDA-MB-435.

For `O=C1Cc2cc(CCn3cncn3)c(Cl)cc2N1`, the GI50 is 32 µM in the test on HCT-116 colon; more than 100 µM with LOX IMVI melanoma; more than 100 µM with OVCAR-3 ovarian; more than 100 µM in the test with MOLT-4 leukemia; 69.4 µM with OVCAR-8 ovarian; 3.5 µM with CCRF-CEM leukemia. Also, the GI50 with MCF7 breast was 4.02 µM; with SK-OV-3 ovarian it was 36.5 µM; in the test with HL-60(TB) leukemia, more than 100 µM; in the test on MDA-MB-435, 3.22 µM. Also, the TGI in the test on HCT-116 colon, in the test on LOX IMVI melanoma, with OVCAR-3 ovarian, in the test with MOLT-4 leukemia, in the test with OVCAR-8 ovarian and in the test on CCRF-CEM leukemia was more than 100 µM throughout. The TGI in the test on MCF7 breast, in the test with SK-OV-3 ovarian, in the test on HL-60(TB) leukemia and in the test on MDA-MB-435 was more than 100 µM each time.

Regarding `COc1ccccc1[As]=[As]c1ccccc1OC` (stereo not given), the GI50 is 0.0245 µM with HCT-116 colon; 0.0384 µM in the test on LOX IMVI melanoma; 0.0234 µM in the test with OVCAR-3 ovarian; 0.0382 µM with MOLT-4 leukemia; 0.0507 µM in the test on OVCAR-8 ovarian; 0.026 µM with CCRF-CEM leukemia. Besides, the GI50 in the test with MCF7 breast is 0.021 µM; in the test on SK-OV-3 ovarian, 0.158 µM; in the test with HL-60(TB) leukemia, 0.0492 µM; in the test with MDA-MB-435 it was 0.0511 µM. In addition, the TGI is 0.0641 µM in the test with HCT-116 colon; 0.136 µM in the test with LOX IMVI melanoma; 0.0531 µM with OVCAR-3 ovarian; 0.204 µM in the test with MOLT-4 leukemia; 0.194 µM in the test on OVCAR-8 ovarian; 0.113 µM with CCRF-CEM leukemia. Besides, the TGI amounted to 0.0604 µM in the test on MCF7 breast, 0.293 µM with SK-OV-3 ovarian, 0.262 µM in the test with HL-60(TB) leukemia and 0.196 µM in the test on MDA-MB-435.

On to `c1ccc(Oc2ccc(Nc3ncc(-c4ccccc4)o3)cc2)cc1`, for which the GI50 in the test with HCT-116 colon, in the test on LOX IMVI melanoma, with OVCAR-3 ovarian, in the test on MOLT-4 leukemia, with OVCAR-8 ovarian and with CCRF-CEM leukemia was more than 25 µM in each case. Also, the GI50 in the test with MCF7 breast, with SK-OV-3 ovarian, with HL-60(TB) leukemia and in the test with MDA-MB-435 was more than 25 µM each time. In addition, the TGI with HCT-116 colon, with LOX IMVI melanoma, in the test on OVCAR-3 ovarian, with MOLT-4 leukemia, in the test on OVCAR-8 ovarian and in the test on CCRF-CEM leukemia was more than 25 µM each time. Also, the TGI in the test on MCF7 breast, with SK-OV-3 ovarian, in the test with HL-60(TB) leukemia and in the test on MDA-MB-435 was more than 25 µM each time.

`Fc1ccc(-c2nn3ccccc3c2-c2ccncc2)cc1`: the GI50 in the test with HCT-116 colon, in the test on LOX IMVI melanoma, in the test with OVCAR-3 ovarian, in the test on MOLT-4 leukemia, with OVCAR-8 ovarian and with CCRF-CEM leukemia was more than 25 µM throughout. In addition, the GI50 in the test with MCF7 breast was more than 23.1 µM; in the test with SK-OV-3 ovarian, more than 25 µM; with HL-60(TB) leukemia, more than 25 µM; with MDA-MB-435, more than 25 µM. The TGI with HCT-116 colon, in the test on LOX IMVI melanoma, in the test with OVCAR-3 ovarian, with MOLT-4 leukemia, with OVCAR-8 ovarian and in the test on CCRF-CEM leukemia was more than 25 µM throughout. Moreover, the TGI in the test with MCF7 breast, with SK-OV-3 ovarian, in the test on HL-60(TB) leukemia and in the test on MDA-MB-435 was more than 25 µM in each case.

Turning to `Clc1ccc2c(c1)N(C1CCCN(Cc3ccccc3)C1)c1ccccc1S2` (stereo not given), the GI50 in the test with HCT-116 colon was 2.92 µM; in the test with LOX IMVI melanoma it was 6 µM; in the test with OVCAR-3 ovarian, 3.27 µM; in the test on MOLT-4 leukemia, 16.6 µM; in the test on OVCAR-8 ovarian it was 6.36 µM; in the test with CCRF-CEM leukemia it was 4.89 µM. The GI50 with MCF7 breast is 3.25 µM; with SK-OV-3 ovarian it was 3.36 µM; with HL-60(TB) leukemia, 4.52 µM; in the test on MDA-MB-435, 1.79 µM. The TGI is 11.5 µM in the test on HCT-116 colon; 35.8 µM in the test on LOX IMVI melanoma; 24.4 µM in the test with OVCAR-3 ovarian; more than 100 µM with MOLT-4 leukemia; more than 100 µM in the test on OVCAR-8 ovarian; more than 100 µM in the test on CCRF-CEM leukemia. Moreover, the TGI was more than 100 µM with MCF7 breast, more than 100 µM in the test with SK-OV-3 ovarian, 72.5 µM in the test with HL-60(TB) leukemia and 3.72 µM with MDA-MB-435.

Take `CCN(CC)CCN1c2nc3ccccc3cc2Sc2cc3ccccc3nc21`: the GI50 with HCT-116 colon is 1.4 µM; in the test on LOX IMVI melanoma it was 1.57 µM; in the test on OVCAR-3 ovarian, 1.85 µM; in the test with MOLT-4 leukemia it was 2.31 µM; in the test with OVCAR-8 ovarian, 2.43 µM; with CCRF-CEM leukemia it was 1.84 µM. Moreover, the GI50 with MCF7 breast was 0.75 µM; in the test with SK-OV-3 ovarian, 3.5 µM; with HL-60(TB) leukemia it was 1.99 µM; in the test with MDA-MB-435, 1.8 µM. The TGI amounted to 2.78 µM in the test on HCT-116 colon; 3.03 µM with LOX IMVI melanoma; 4.9 µM in the test on OVCAR-3 ovarian; 6.6 µM in the test on MOLT-4 leukemia; 8.15 µM with OVCAR-8 ovarian; 4.73 µM in the test with CCRF-CEM leukemia. Also, the TGI in the test with MCF7 breast came to 2.1 µM; in the test on SK-OV-3 ovarian it was 12.9 µM; in the test on HL-60(TB) leukemia, 4.21 µM; in the test with MDA-MB-435, 3.97 µM.
